Results reported in patent US20250290915A1, “METHOD FOR PREDICTING RESPONSIVENESS TO THERAPY” (CANCERTAIN LIMITED, priority 2022, published 2025).

What was measured:
Assay type in all cases: cell-based, human
[1] = tested on: Circulating Tumour Cells (CTCs) from a patient with sex cord stromal tumour, ovarian tumour; test: Drug response score assay on CTCs from blood, Example 4; set-up: key to Drug response score, conc. 1 / Drug response score, conc. 2 / Drug response score, conc. 3 / Drug response score, conc. 4: normalized drug response metric (Gupta et al. 2020); settings: for Drug response score, conc. 1: conc. 1: Cyclo 2.5 μg/ml, Vinc 10 ng/ml, Etop 1 μg/ml, Bini 100 ng/ml, Doxo 10 ng/ml; for Drug response score, conc. 1 / Drug response score, conc. 2 / Drug response score, conc. 3 / Drug response score, conc. 4: CTCs, t96h; for Drug response score, conc. 2: conc. 2: Cyclo 10 μg/ml, Vinc 20 ng/ml, Etop 4 μg/ml, Bini 200 ng/ml, Doxo 30 ng/ml; for Drug response score, conc. 3: conc. 3: Cyclo 40 μg/ml, Vinc 40 ng/ml, Etop 20 μg/ml, Bini 400 ng/ml, Doxo 90 ng/ml; for Drug response score, conc. 4: conc. 4: Cyclo 160 μg/ml, Vinc 80 ng/ml, Etop 100 μg/ml, Bini 800 ng/ml, Doxo 270 ng/ml; for effectiveness on Circulating Tumour Cells (CTCs) under laboratory conditions / Drug sensitivity as calculated by the assay (interpretation of Drug Response Scores): sex cord stromal / ovarian tumour CTCs; for Drug sensitivity as calculated by the assay (interpretation of Drug Response Scores): Table 14
Protocol: CD45^+ cells and circulating tumour cells (CTCs) were isolated from a blood sample provided by each subject.
CD45 separation was performed by adding human CD45 microbeads (50 μl/ml blood), incubating for 15 minutes at 4° C. and then processing using an AutoMACS machine. This separates the blood sample into CD45^+ and CD45^−cells in 2 separate falcons. The falcon tubes are then centrifuged at 1200 rpm for 5 minutes.
The supernatant was removed from the CD45^−falcon tube, and the CD45^−cells contacted with 100 μl of FcR block and 100 μl of CD326 (EpCAM) MicroBeads, followed by incubation at […] 4° C. for 30 minutes. The CD45^−cells were then processed using an AutoMACS machine to separate the EpCAM positive and negative cells into 2 separate falcon tubes. The EpCAM-cells were discarded. The supernatant was removed from the EpCAM^+ cells, and the cells resuspended in DMEM with 2 μl Cell Tox, 2 μl MT and 2 μl MT. 20 μl of the resuspended pellet was then added to all sample wells excluding a blank. After all wells are added to, a cell count was conducted on the […] to determine the number of circulating tumour cells (CTCs).
The different cell types were each divided equally into populations, depending on the number of drugs/concentrations to be tested and plated on a cell-culture plate pre-coated with a scaffold of polycaprolactone (PCL) electrospun fibres and incubated at 37° C., 5% CO2, for 5 to (typically 10) minutes to facilitate cell attachment. After attachment, an initial imaging step was carried out using the RealTime-Glo™ MT assay from Promega (Catalogue No. G9711)) and the CellTox™ Green Cytotoxicity Assay (Promega, Catalogue No. G8741), carried out according to manufacturer's instructions. Following this initial imagining, the immunotherapeutic and/or chemotherapeutic agents were added to the cell populations as indicated below. After 10 minutes, the imagining step was repeated. The cell populations were then incubated at 37° C., 5% CO2 for 48 hours. The imaging step was then repeated. The cell populations were then re-dosed with the same immunotherapeutic and/or chemotherapeutic agents as indicated below, and incubated at 37° C., 5% CO2 for a further 48 hours. After this second 48 hour incubation, the imagining step was repeated for a final time.
At the end of this culture period, dose response scores were calculated using a normalized drug response metric as described in Gupta et al. (Communications Biology volume 3, Article number: 42 (2020), https://doi.org/10.1038/s42003-020-0765-z). The start readout for a given immunotherapeutic or chemotherapeutic agent at a given concentration was the to readout for said immunotherapeutic or chemotherapeutic agent at a specified concentration. The end readout for a given immunotherapeutic or chemotherapeutic agent at a given concentration was the final timepoint reading (t96h) for said immunotherapeutic or chemotherapeutic agent at a specified concentration.
The positive control start readout for a given drug/concentration was the to readout for the corresponding drug at a specified concentration. The positive control end readout for the corresponding drug at a specified concentration was the final timepoint reading (t96h) for the corresponding blank well.
The negative control start and end readouts for a given immunotherapeutic or chemotherapeutic agent at a given concentration were the to and final timepoint reading (t96h) respectively for blank cell or blank immuno cell well respectively.
The sensitivity or resistance of a subject's cancer to a given immunotherapeutic or chemotherapeutic agent was determined based on the calculated drug response score as shown in Table 2.
Blood samples from a patient with sex cord stromal tumour, ovarian tumour (epitheliod neoplasm, stage 3 recurrence after surgery (resection) and previous chemotherapy) were received on 19 Jul. 2021 and tested using a 5 drug panel. […]

[2] = tested on: Circulating Tumour Cells (CTCs) from a patient with colon cancer (sigmoid colon cancer); test: Drug response score assay on CTCs from blood, Example 8; set-up: key to Drug response score, conc. 1 / Drug response score, conc. 2 / Drug response score, conc. 3 / Drug response score, conc. 4: normalized drug response metric (Gupta et al. 2020); settings: for Drug response score, conc. 1: conc. 1 of each drug as in Table 24; for Drug response score, conc. 1 / Drug response score, conc. 2 / Drug response score, conc. 3 / Drug response score, conc. 4: CTCs, t96h; for Drug response score, conc. 2: conc. 2 of each drug as in Table 24; for Drug response score, conc. 3: conc. 3 of each drug as in Table 24; for Drug sensitivity as calculated by the assay (interpretation of Drug Response Scores): sigmoid colon cancer CTCs, Table 26; for Drug response score, conc. 4: conc. 4 of each drug as in Table 24
Summary of the method: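 EpCAM+ CTCs isolated from patient blood by CD45 depletion then EpCAM bead selection, and imaged with RealTime-Glo MT viability and CellTox Green cytotoxicity reagents. Agents added, cells cultured at 37° C, 5% CO2 for 48 h, re-dosed, then a further 48 h. Score calculated by normalized drug response metric from t0 and t96h readouts against blank-well controls.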

[3] = tested on: Circulating Tumour Cells (CTCs) from a patient with lung cancer (adenocarcinoma); test: Drug response score assay on CTCs (with CD45+ cells for immunotherapy) from blood, Example 5; settings: for Drug response score, conc. 1: conc. 1: Niv 20 μg/ml, Gm 2 μg/ml, Vin 20 μg/ml, Gf 100 ng/ml, E 0.75 μg/ml, Afa 20 ng/ml, Metho 0.5 μg/ml, Cz 200 ng/ml, Pal 40 ng/ml (CTCs); for Drug response score, conc. 1 / Drug response score, conc. 2: Pem 20 μg/ml (CTCs + CD45+ cells); for Drug response score, conc. 1 / Drug response score, conc. 2 / Drug response score, conc. 3 / Drug response score, conc. 4: t96h; for Drug response score, conc. 2: conc. 2: Niv 20 μg/ml, Gm 10 μg/ml, Vin 40 μg/ml, Gf 200 ng/ml, E 1.5 μg/ml, Afa 50 ng/ml, Metho 1 μg/ml, Cz 1000 ng/ml, Pal 80 ng/ml (CTCs); for Drug response score, conc. 3: conc. 3: Niv 80 μg/ml, Pem 100 μg/ml (CTCs + CD45+ cells), Gm 20 μg/ml, Vin 80 μg/ml, Gf 600 ng/ml, E 3 μg/ml, Afa 100 ng/ml, Metho 2 μg/ml, Cz 2000 ng/ml, Pal 160 ng/ml (CTCs); for Drug response score, conc. 4: conc. 4: Niv 160 μg/ml, Pem 160 μg/ml (CTCs + CD45+ cells), Gm 40 μg/ml, Vin 200 μg/ml, Gf 1200 ng/ml, E 6 μg/ml, Afa 150 ng/ml, Metho 4 μg/ml, Cz 4000 ng/ml, Pal 320 ng/ml (CTCs); for Drug sensitivity as calculated by the assay (interpretation of Drug Response Scores): Table 17

Compound | Drug response score, conc. 1 [1] | Drug response score, conc. 2 [1] | Drug response score, conc. 3 [1] | Drug response score, conc. 4 [1] | effectiveness on Circulating Tumour Cells (CTCs) under laboratory conditions [1] | Drug sensitivity as calculated by the assay (interpretation of Drug Response Scores) [1] | Drug response score, conc. 1 [2] | Drug response score, conc. 2 [2] | Drug response score, conc. 3 [2] | Drug sensitivity as calculated by the assay (interpretation of Drug Response Scores) [2] | Drug response score, conc. 4 [2] | Drug response score, conc. 1 [3] | Drug response score, conc. 2 [3] | Drug response score, conc. 3 [3] | Drug response score, conc. 4 [3] | effectiveness on Circulating Tumour Cells (CTCs) under laboratory conditions ([3]; lung cancer CTCs) | Drug sensitivity as calculated by the assay (interpretation of Drug Response Scores) ([3]; lung cancer CTCs)
COc1cccc2c1C(=O)c1c(O)c3c(c(O)c1C2=O)C[C@@](O)(C(=O)CO)C[C@@H]3O[C@H]1C[C@H](N)[C@H](O)[C@H](C)O1 [Doxorubicin] | 0.68 | 0.93 | 0.54 | 0.93 | show effectiveness | Sensitive (S++) | −0.0102 | −0.0852 | −0.2828 | Sensitive (S++) | – | – | – | – | – | – | –
COc1cc([C@@H]2c3cc4c(cc3[C@@H](O[C@@H]3O[C@@H]5CO[C@@H](C)O[C@H]5[C@H](O)[C@H]3O)[C@H]3COC(=O)[C@H]23)OCO4)cc(OC)c1O [Etoposide] | 0.79 | 1.06 | 1.19 | 1.35 | not effective | Resistant | −0.4099 | −0.6338 | −0.6648 | Sensitive (S++) | 0.1129 | – | – | – | – | – | –
CC(=O)O[C@H]1C(=O)[C@@]2(C)[C@H]([C@H](OC(=O)c3ccccc3)[C@]3(O)C[C@H](OC(=O)[C@H](O)[C@@H](NC(=O)c4ccccc4)c4ccccc4)C(C)=C1C3(C)C)[C@]1(OC(C)=O)CO[C@@H]1C[C@@H]2O [Paclitaxel] | – | – | – | – | – | – | −0.8976 | −0.1500 | −0.5818 | Sensitive (S++) | −0.8009 | – | – | – | – | – | –
Nivolumab | – | – | – | – | – | – | – | – | – | – | – | −0.45 | −0.80 | −0.12 | −0.22 | more effective than Pembrozulimab | S++
Pembrolizumab | – | – | – | – | – | – | – | – | – | – | – | −0.34 | −0.15 | 0.05 | 0.24 | – | S++
